Assay results reported in patent US20090197819A1, “Compositions for improving and repairing skin” (priority 2007, published 2009).

How the values were obtained:
[1] = tested on: skin; experiment: Preliminary application of ribose to skin without penetrant; assay type: in vivo; conditions: topical, no penetrant
From the text: The skin is a barrier. Preliminary effects to determine the effect on improving skin by the application of ribose were unsuccessful, leading the Applicants to the realization that ribose may not have penetrated to the basal cells and dermis. To get penetration it is advantageous to provide a penetrant to increase the concentration of active ingredient at the dermis and epidermis. A preferred penetrant is ethanol, which will be incorporated into the composition at a concentration of 0.1 to 15%, most preferably 10% weight to volume. The active ingredient may be at a concentration of from 0.5 to 10%, preferably 1%, weight to volume.

[2] = tested on: skeletal muscle; conditions: oral administration; cited from earlier work
[3] = tested on: Fibroblast cell cultures; experiment: Recovery of ATP in cultured fibroblasts after hypoxic stress; assay type: cell-based; conditions: fibroblasts at about 80% confluence, six hours hypoxic atmosphere, fresh medium, inspected at 12, 24 and 48 hours; first experiment
Procedure: Based on this information, Applicants believe that the same effect might be shown in cell culture with skin cells. The first skin cell be tested in vitro was the fibroblast, the culture of which is well known. The Coriell Institute for medical research publishes a web site with detailed instructions, the teachings of which are incorporated by reference. (Http:/locus.umdnj.edu/cer/faq/fibro.html.) Fibroblast cell cultures were tested to determine an optimal level of ribose as compared to glucose control.
To determine a protective effect of ribose, test and control plates were grown to about 80% confluence and subjected to a simulated environmental stress, six hours under an hypoxic atmosphere. Following exposure, the medium was aspirated off the culture and fresh medium applied. Cultures were inspected at 12, 24 and 48 hours to determine recovery of ATP to pre-hypoxia levels.

[4] = tested on: lymphocytes; conditions: previously shown by Applicants; cited from earlier work

SMILES: O=C[C@H](O)[C@H](O)[C@H](O)CO [D-ribose]
- effect on improving skin by the application of ribose [1]: unsuccessful
- ATP levels in skeletal muscle [2]: raises ATP levels
- recovery of ATP to pre-hypoxia levels (of base ATP levels) [3]: 19%
- growth of lymphocytes in cell culture [4]: stimulates the growth
